# Assay results taken from patent publication US20180050093A1, “LEPTIN ACTIVE PEPTIDE HAVING D HELIX REGION MUTATIONS, CODING GENE THEREOF, AND APPLICATION THEREOF” (SUN YAT-SEN UNIVERSITY, priority 2015, published 2018).
# Tested on: 3T3-L1 preadipocytes
# Experiment: In-vitro lipid-lowering (adipocyte-degrading) activity analysis, MTT detection
# Format: cell-based
# Details: for adipocyte lysis activity vs. negative control (Control, PBS): FIG. 2 mark a
# Description: Preadipocytes: induced preadipocytes stage; D0-D2: 0-2nd day of induced differentiation (an early stage of differentiation); D9: the 9th day of induced differentiation (a mature adipocyte stage).
# 1.2 In-Vitro Lipid-Lowering Activity Analysis of the Leptin Active Peptide
# Lipid degradation activity of the synthesized leptin active peptide having helix D region mutation is analyzed on a cellular level by taking a 3T3-L1 preadipocyte line as a model. Specific operations are as follows:
# b: an early differentiation stage D0-D2 (0-2nd day of induced differentiation); and
# c: a mature adipocyte stage D9 (the 9th day of induced differentiation);
# a. leptin active peptide having helix D region mutation (PEP-D): diluted to […] with purified water and preserved at −20° C. for later use. After an experiment is started, working concentrations have 3 concentration gradients, that is, 10^−6M, 10^−9M and 10^−11M;
# b. positive control. I: H-LEP, recombinant human-derived leptin protein (10221-HNAE, Beijing Sino Biological Inc.), diluted to 10^−6M with purified water and preserved at −20° C. for later use. After an experiment is started, the working concentration is 10^−9M;
# c. positive control 2: Ros (rosiglitazone,R2408,Sigma), diluted to a stock solution with a concentration of 2518 μM with DMSO and preserved at −20° C. for later use. After an experiment is started, the stock solution is diluted to a working solution of 0.5 μM with cell culture fluid;
# d. negative control (Control): equivalent quantity of PBS
# (1) Inoculating 3T3-L1 preadipocytes in corning cell bind 96-well plates (totally inoculated with 3 plates, respectively plate a, plate b and plate c), wherein the inoculation density is 4500 cells/well; and marking, and standing and culturing at 37° C. in a 5% CO2 incubator. Each sample of each plate is operated repeatedly for 3 times, and the whole experiment is repeated for 3 times;
# (2) Continuously culturing for 48 hours after the cells are merged to 100% (enabling the cells to exit from a growth cycle, and starting induced differentiation); and
# i, taking out the plate a; respectively adding different amounts of leptin active peptide having helix D region mutation (PEP-D) to enable the working concentrations to be respectively 3 concentration gradients, that is, 10^−6M, 10^−9M and 10^−11M; setting 2 positive controls, a negative control (PBS) and a blank control (3 repeated holes are set for each sample), and continuously standing and culturing at 37° C. in the 5% CO2 incubator.
# ii, when culturing to 45 hours (that is, 3 hours before the end of drug treatment), taking out the plate a, and measuring MTT (preadipocytes). Specific operations: adding 20 μL of 5 mg/mL of MTT solution into each well, continuously standing and culturing at 37° C. in the 5% CO2 incubator for 3 hours, sucking and discarding the culture solution in the wells, adding 150 μL of DMSO into each well, horizontally shaking for 10 min, detecting a light absorption value at 492 nm by a microplate reader, and drawing a growth curve;
# i, taking out the plate b; adding the differentiation induced liquid I (D0); respectively adding the leptin active peptide having helix D region mutation (PEP-D); setting 2 positive controls, a negative control (PBS) and a blank control (3 repeated holes are set for each sample), and continuously standing and culturing at 37° C. in the 5% CO2 incubator.
# ii, when culturing to 45 hours (that is, 3 hours before the end of drug treatment), taking out the plate b, and measuring MTT (at the early differentiation stage, D0-D2). Specific operations: adding 20 μL, of 5 mg/mL of MTT solution into each well; continuously standing and culturing at 37° C. in the 5% CO2 incubator for 3 hours; sucking and discarding the culture solution in the wells; adding 150 μL of DMSO into each well; horizontally shaking for 10 min; detecting a light absorption value at 492 nm by the microplate reader; and drawing a growth curve; […]
# [1] = P<0.05, H-LEP 10^−9M, Ros 0.5 μM
Molecule,"adipocyte lysis activity vs. negative control (Control, PBS) [1]","adipocyte lysis activity vs. H-LEP (FIG. 2 mark b, P<0.05)","adipocyte lysis activity vs. Ros (FIG. 2 mark c, P<0.05)","adipocyte-degrading activity compared with the positive controls H-LEP and Ros (MTT, three cell differentiation stages (preadipocytes, early differentiation D0-D2, mature adipocyte D9), PEP-D 10^−6M, 10^−9M, 10^−11M, H-LEP 10^−9M, Ros 0.5 μM)","concentration dependence of lipid-lowering activity (MTT, working concentrations 10^−6M, 10^−9M and 10^−11M)","cell lysis effects at cell stages (preadipocytes stage, differentiation stage (D0-D2), mature adipocyte stage (D9))"
"CN(CCOc1ccc(CC2SC(=O)NC2=O)cc1)c1ccccn1 (stereo not shown) [Ros, rosiglitazone, reference compound]",obviously better than that of the negative control,–,–,–,–,–
"H-LEP: recombinant human-derived leptin protein (10221-HNAE, Beijing Sino Biological Inc.), positive control",obviously better than that of the negative control,–,–,–,–,–
STEVVALDGLQGSLQTMLLQLEYS (An amino acid sequence of the leptin active peptide having helix D region mutation) [PEP-D],–,obviously better than that of the H-LEP,obviously better than that of the Ros,obviously better than that of positive control-human-derived leptin protein (H-LEP) and a commercially available drug rosiglitazone (Ros),obvious concentration dependence,obvious cell lysis effects at three stages
